Measurements: publication PMC10303920, “Competition between skin antimicrobial peptides and commensal bacteria in type 2 inflammation enables survival of S. aureus” (Cell reports, 2023)
No end group written: not given here.

Experiments:
[1] = tested on: AMP gene expression at wound edge; test: AMP response to partial-thickness skin wounds of mice treated by MC903; format: in vivo, Balb/c mice; settings: MC903 or vehicle for 14 days, scratched by 18 gauge needle, biopsy at wound edge after 48 hours; Figure S3
Excerpt: All experiments involving live animals were done with the approval of the Institutional Animal Care and Use Guidelines of the University of California, San Diego (Protocol number: S09074). To investigate influences of distinct type of skin inflammation on the microbial community on the skin surface, we employed Th2 and Th17 inflammation models using mixed sex of Il4ra^−/− Balb/c (Jackson Laboratory, ME), Camp^−/− Balb/c,[4] Flg^ft/ft Balb/c or WT Balb/c mice (Jackson Laboratory) (6–8 weeks). Mice were housed under a specific pathogen-free condition with 12hr light/12hr dark cycle at 20–22°C and 30–70% humidity. Mice were randomly selected, the back skin was shaved, treated with depilatory cream, rinsed with water, cleaned with alcohol swab twice. To induce Th2 inflammation, MC903 (50μL of 90μM in ethanol) was applied to the back skin of WT, Il4ra^−/− or Camp^−/− mice every day for 14 days. […] The dorsal skin was disinfected with alcohol swabs twice, applied with a 6-mm TSB agar disc containing 1 × 10^6 CFU of S. aureus (ATCC35556), and covered with Tegaderm wound dressing film for initial 24 h for quantitative bacterial application. […] The mRNA expression of each gene was evaluated by qPCR and normalized to GAPDH expression (key resources table). page 4: Figure S3. […] P-value (*P<0.05 and **P<0.01) was calculated by two-tailed unpaired parametric t-test. […]

S. aureus (ATCC35556) [2] = test: Survival of S. aureus on mouse skin in inflammation models; format: in vivo, Balb/c mice
Excerpt: All experiments involving live animals were done with the approval of the Institutional Animal Care and Use Guidelines of the University of California, San Diego (Protocol number: S09074). To investigate influences of distinct type of skin inflammation on the microbial community on the skin surface, we employed Th2 and Th17 inflammation models using mixed sex of Il4ra^−/− Balb/c (Jackson Laboratory, ME), Camp^−/− Balb/c,[4] Flg^ft/ft Balb/c or WT Balb/c mice (Jackson Laboratory) (6–8 weeks). Mice were housed under a specific pathogen-free condition with 12hr light/12hr dark cycle at 20–22°C and 30–70% humidity. Mice were randomly selected, the back skin was shaved, treated with depilatory cream, rinsed with water, cleaned with alcohol swab twice. To induce Th2 inflammation, MC903 (50μL of 90μM in ethanol) was applied to the back skin of WT, Il4ra^−/− or Camp^−/− mice every day for 14 days. Control mice received equal volume of ethanol. Alternatively, a sterile patch (2 × 2cm) with OVA solution (100 μg/100 μL PBS) or PBS was placed on tape-stripped dorsal skin of Flg^ft/ft Balb/c mice (6–8 weeks, mixed sex) and covered with Tegaderm wound dressing film for 8 days (the patch was replaced every 2 days). Mice received 3 times of 8-day OVA exposures by 2-week intervals. […] The dorsal skin was disinfected with alcohol swabs twice, applied with a 6-mm TSB agar disc containing 1 × 10^6 CFU of S. aureus (ATCC35556), and covered with Tegaderm wound dressing film for initial 24 h for quantitative bacterial application. […]
Bacteria were cultured in tryptic soy broth (TSB) at 37°C overnight, washed with PBS, and re-suspended in PBS at 1 × 10^6 CFU/5μL. […] The entire dorsal skin was then covered with wound dressing film for quantitative bacterial application and to avoid contamination.[18] […]
Survival of S. aureus and CoNS were measured on Baird-Parker agar for S. aureus or mannitol salt agar with egg yolk for total Staphylococcus species using easySpiral automatic diluter plater with exponential mode or circle mode and automatic colony counter (Interscience Inc., France). […]

S. aureus (ATCC35556) [3] = test: Survival of S. aureus on mouse skin after topical steroid; format: in vivo, Balb/c WT mice; settings: 0.1% triamcinolone topical at 24 and 32 h after S. aureus, read at 48 h; Figure 2L
Experimental: (§1) Back skin of Balb/c WT mice (8 weeks, female) were shaved and treated with MC903 as described above. After decontaminating the skin with alcohol swab twice, S. aureus (ATCC35556, 1 × 10^6 CFU) were applied with a TSB agar disc and whole back skin was covered with Tegaderm wound dressing film for 24 h. Tegaderm and the TSB disc were removed, and then 0.1% Triamcinolone (Perrigo) or Vaseline (50μg) were applied twice on back skin at 24 and 32 h after S. aureus were applied. Skin swab and biopsy was ob tained to measure S. aureus survival and immune response of the skin, respectively, at 48 h after bacteria application.
Survival of S. aureus and CoNS were measured on Baird-Parker agar for S. aureus or mannitol salt agar with egg yolk for total Staphylococcus species using easySpiral automatic diluter plater with exponential mode or circle mode and automatic colony counter (Interscience Inc., France). To determine total CoNS survival, CFUs on mannitol salt agar were subtracted by CFUs on Baird-Parker agar. To distinguish ShA9-WT and ShA9-ΔLanti mutant, CoNS colonies with pink color without halo were randomly picked from mannitol salt agar plate and conducted colony PCR with gene specific primers for ShA9-lantibiotic-α (key resources table).

[4] = tested on: Il17a, Il4, Il13, Camp, Defb14, Defb4 expression; test: qPCR of cytokine and AMP genes in mouse skin after topical steroid; format: in vivo, Balb/c WT mice; settings: topical triamcinolone
Experimental: as §1
To determine expression of mRNA for Il4, Il13, Il17a, Tslp, Defb4, […] or Camp, 6mm punch biopsy was obtained from the mouse back skin. Skin biopsy was stored in 1mL of RNAlater solution at −80°C. Total RNA was extracted with PureLink RNA extraction kit (ThermoScientific Fisher) and one μg of total RNA was reversely transcribed with VERSO cDNA synthesis kit (ThermoScientific Fisher). Predeveloped qPCR assay primer sets (IDT oligo, listed in key resources table) were used for analyzing the expressions of these genes. The mRNA expression of each gene was evaluated by qPCR and normalized to GAPDH expression (key resources table).

ShA9-WT and ShA9-ΔLanti = test: Growth inhibition of ShA9-WT and ShA9-ΔLanti by human and murine AMPs (OD600); format: cell-based, Staphylococcus hominis; settings: 90% RPMI/10% TSB, 30°C, 24 h, mean of duplicate technical replicates, Figure 4E
Experimental: Staphylococcus strains collected from normal skin from healthy subjects or lesional skin from AD patients were cultured in TSB overnight. Bacteria were washed with PBS and resuspended to 90% RPMI media and 10% TSB. Bacteria (1 × 10^5 CFU/mL) were incu bated with or without human AMPs (LL-37, hBD-2, hBD-3) or mouse cathelin-related AMP (CRAMP) in 90% RPMI media and 10% TSB (100 μL) in each well of a 96-well plate at 30°C for 24 h. Bacterial growth was assessed by measuring OD600. Minimal inhibitory concentration was defined as the lowest concentration which prevent visible bacterial growth (<5% of OD600 value of the con trol well).

With `C=C1/C(=C\C=C2/CCC[C@]3(C)[C@@H]([C@H](C)/C=C/[C@@H](O)C4CC4)CC[C@@H]23)C[C@@H](O)C[C@@H]1O` [MC903] the “AMP response to skin wounding after MC903” value [1] was “suppressed” and the “S. aureus survival on the skin after MC903 pretreatment relative to untreated mice” value (S. aureus (ATCC35556) [2]; WT Balb/c mice, MC903 50 μL of 90 μM daily for 14 days, S. aureus 1 × 10^6 CFU for 48 h, Figure S1G) was “increased”.

In the case of `CC(C)Cn1cnc2c(N)nc3ccccc3c21` [imiquimod], the “Protection against S. aureus on imiquimod-treated skin” value (S. aureus (ATCC35556) [2]; Flg^ft/ft mice, 5% imiquimod cream daily for 7 days, S. aureus for 48 hours, Figure S6) is reported as “enhanced protection against S. aureus”.

`C[C@]12C=CC(=O)C=C1CC[C@H]1[C@@H]3C[C@@H](O)[C@](O)(C(=O)CO)[C@@]3(C)C[C@H](O)[C@@]12F` [triamcinolone] was tested, and the “Survival of S. aureus on MC903-pretreated mouse skin” value (S. aureus (ATCC35556) [3]) was “decreased survival of S. aureus”, the “Il17a expression, healthy skin after S. aureus exposure” value ([4]; no MC903, Figure 2F) was “decreased” and the “Camp expression, healthy skin after S. aureus exposure” value ([4]; no MC903, Figure 2I) was “decreased”. The “Defb14 expression, healthy skin after S. aureus exposure” value ([4]; no MC903, Figure 2J) was “decreased”, the “Il4 expression, skin with Th2 inflammation (MC903 and S. aureus)” value ([4]; Figure 2G) was “decreased” and the “Il13 expression, skin with Th2 inflammation (MC903 and S. aureus)” value ([4]; Figure 2H) was “decreased”. The “Camp expression, skin with Th2 inflammation (MC903 and S. aureus)” value ([4]; Figure 2I) was “increased”, the “Defb14 expression, skin with Th2 inflammation (MC903 and S. aureus)” value ([4]; Figure 2J) was “increased” and the “Defb4 expression, skin with Th2 inflammation (MC903 and S. aureus)” value ([4]; Figure 2K) was “increased”.

With CRAMP (GLL-33) the “Sensitivity of ShA9-WT to the AMP compared with ShA9-ΔLanti (growth inhibition)” value (ShA9-WT and ShA9-ΔLanti) was “more sensitive”.

In the case of human beta-defensin 2 [hBD-2], the “Sensitivity of ShA9-WT to the AMP compared with ShA9-ΔLanti (growth inhibition)” value (ShA9-WT and ShA9-ΔLanti) is reported as “more sensitive”.

With “human beta-defensin 3 (GIINTLQKYYCRVRGGRCAVLSCLPKEEQIGKCSTRGRKCCRRKK; ends and bridges not checked; cysteine pairing not given here; UniProt P81534 23-67, looked up) [hBD-3, human β-defensin, synthetic AMP (Peptide International)]” the “Sensitivity of ShA9-WT to the AMP compared with ShA9-ΔLanti (growth inhibition)” value (ShA9-WT and ShA9-ΔLanti) was “more sensitive”.

B1: ovalbumin (protein, UniProt P01012 2-386, looked up)
Ovalbumin: GSIGAASMEFCFDVFKELKVHHANENIFYCPIAIMSALAMVYLGAKDSTRTQINKVVRFDKLPGFGDSIEAQCGTSVNVHSSLRDILNQITKPNDVYSFSLASRLYAEERYPILPEYLQCVKELYRGGLEPINFQTAADQARELINSWVESQTNGIIRNVLQPSSVDSQTAMVLVNAIVFKGLWEKAFKDEDTQAMPFRVTEQESKPVQMMYQIGLFRVASMASEKMKILELPFASGTMSMLVLLPDEVSGLEQLESIINFEKLTEWTSSNVMEERKIKVYLPRMKMEEKYNLTSVLMAMGITDVFSSSANLSGISSAESLKISQAVHAAHAEINEAGREVVGSAEAGVDAASVSEEFRADHPFLFCIKHIATNAVLFFGRCVSP
notes: ovalbumin used for epicutaneous sensitization to induce Th2 inflammation
In the case of B1, the “S. aureus survival on the skin after OVA sensitization relative to untreated mice” value (S. aureus (ATCC35556) [2]; Flg^ft/ft Balb/c mice, 100 μg OVA in 100 μL PBS, 3 exposure cycles, S. aureus 1 × 10^6 CFU for 48 h, Figure S1M) is reported as “increased colonization by S. aureus”.
